Reference: patent EP4722207A1, “OXOISOINDOLINYL-SUBSTITUTED TETRAHYDROPYRIMIDINEDIONE DERIVATIVE AND USE THEREOF” (Gluetacs Therapeutics (Shanghai) Co., Ltd., priority 2023, dated 2024)

Columns and labels:
WEE1 = target: T1, WEE1 (Homo sapiens, UniProt P30291+Q96SW2); assay: Western-blot assay, substrate protein degradation in hPBMCs: WEE1; type: cell-based; conditions: for WEE1 substrate protein remaining %: compounds at 50 nM and 500 nM, 24 hours
T1 construct: effects of the compounds of the present disclosure on the expression of target proteins in cells; endogenous in cells; host or cells: human PBMCs (hPBMCs)
T1 sequence (P30291 whole entry): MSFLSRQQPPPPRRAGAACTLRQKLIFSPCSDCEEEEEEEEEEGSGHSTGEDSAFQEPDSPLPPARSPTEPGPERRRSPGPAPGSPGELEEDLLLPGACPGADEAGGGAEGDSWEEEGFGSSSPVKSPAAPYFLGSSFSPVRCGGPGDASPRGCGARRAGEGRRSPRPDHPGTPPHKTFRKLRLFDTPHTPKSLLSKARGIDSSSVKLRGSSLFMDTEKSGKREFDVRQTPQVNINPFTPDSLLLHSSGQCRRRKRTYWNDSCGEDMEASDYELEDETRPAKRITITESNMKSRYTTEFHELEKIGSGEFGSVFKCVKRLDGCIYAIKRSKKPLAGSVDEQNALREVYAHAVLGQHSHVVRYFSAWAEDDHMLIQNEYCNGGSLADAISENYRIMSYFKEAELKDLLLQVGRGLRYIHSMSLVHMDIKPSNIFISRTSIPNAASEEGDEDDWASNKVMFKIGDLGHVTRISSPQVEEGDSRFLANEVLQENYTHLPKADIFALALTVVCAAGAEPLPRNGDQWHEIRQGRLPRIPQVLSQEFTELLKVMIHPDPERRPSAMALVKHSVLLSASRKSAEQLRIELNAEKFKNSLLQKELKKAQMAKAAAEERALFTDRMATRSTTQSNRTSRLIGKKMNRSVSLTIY
T1 sequence (Q96SW2 whole entry): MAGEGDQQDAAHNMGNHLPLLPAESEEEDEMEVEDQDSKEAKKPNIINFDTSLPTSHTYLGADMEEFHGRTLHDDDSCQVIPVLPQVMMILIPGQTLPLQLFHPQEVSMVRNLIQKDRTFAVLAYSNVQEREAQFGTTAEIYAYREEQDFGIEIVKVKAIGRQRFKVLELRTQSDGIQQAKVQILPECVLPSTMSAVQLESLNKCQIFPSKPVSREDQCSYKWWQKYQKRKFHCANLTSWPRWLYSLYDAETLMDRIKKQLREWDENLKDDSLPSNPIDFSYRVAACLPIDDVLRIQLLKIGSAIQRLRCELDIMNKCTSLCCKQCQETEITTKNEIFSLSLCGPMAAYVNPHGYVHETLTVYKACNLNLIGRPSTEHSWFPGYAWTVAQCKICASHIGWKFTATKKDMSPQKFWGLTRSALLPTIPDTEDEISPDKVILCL
T1 sequence (Q16531 whole entry partner): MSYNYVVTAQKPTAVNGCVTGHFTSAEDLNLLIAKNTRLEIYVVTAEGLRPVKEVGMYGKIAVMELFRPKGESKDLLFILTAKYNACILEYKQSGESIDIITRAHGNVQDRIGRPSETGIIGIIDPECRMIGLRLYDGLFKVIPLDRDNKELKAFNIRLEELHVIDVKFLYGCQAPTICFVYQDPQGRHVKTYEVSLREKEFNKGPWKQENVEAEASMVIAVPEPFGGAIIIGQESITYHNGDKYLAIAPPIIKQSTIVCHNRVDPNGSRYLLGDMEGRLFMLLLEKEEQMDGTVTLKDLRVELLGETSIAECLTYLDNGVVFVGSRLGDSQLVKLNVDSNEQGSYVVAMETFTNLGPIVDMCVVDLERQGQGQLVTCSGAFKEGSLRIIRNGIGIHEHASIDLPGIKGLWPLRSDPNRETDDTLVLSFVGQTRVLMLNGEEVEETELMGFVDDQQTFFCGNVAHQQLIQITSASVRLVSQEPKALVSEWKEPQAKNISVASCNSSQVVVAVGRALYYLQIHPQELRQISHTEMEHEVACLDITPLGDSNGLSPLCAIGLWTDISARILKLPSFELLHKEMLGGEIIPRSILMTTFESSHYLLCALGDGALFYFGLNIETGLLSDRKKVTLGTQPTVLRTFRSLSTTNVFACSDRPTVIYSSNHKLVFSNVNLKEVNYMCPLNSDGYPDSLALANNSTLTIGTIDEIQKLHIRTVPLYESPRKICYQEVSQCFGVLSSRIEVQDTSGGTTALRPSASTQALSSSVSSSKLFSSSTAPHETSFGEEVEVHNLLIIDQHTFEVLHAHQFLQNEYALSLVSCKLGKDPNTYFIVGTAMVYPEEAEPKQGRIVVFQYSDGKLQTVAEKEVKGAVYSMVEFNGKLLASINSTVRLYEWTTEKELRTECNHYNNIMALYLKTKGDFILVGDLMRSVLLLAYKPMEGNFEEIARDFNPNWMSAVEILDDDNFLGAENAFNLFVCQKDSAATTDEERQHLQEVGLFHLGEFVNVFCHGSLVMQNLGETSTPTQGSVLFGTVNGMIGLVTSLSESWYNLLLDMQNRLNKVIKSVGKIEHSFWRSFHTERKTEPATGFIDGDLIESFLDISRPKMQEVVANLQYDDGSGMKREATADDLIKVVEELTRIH

IKZF3 = target: T2, IKZF3 (Homo sapiens, UniProt Q96SW2+Q9UKT9); assay: Western-blot assay, substrate protein degradation in hPBMCs: IKZF3; type: cell-based; conditions: for IKZF3 substrate protein remaining %: compounds at 50 nM and 500 nM, 24 hours
T2 construct: effects of the compounds of the present disclosure on the expression of target proteins in cells; endogenous in cells; host or cells: human PBMCs (hPBMCs)
T2 sequence (Q9UKT9 whole entry): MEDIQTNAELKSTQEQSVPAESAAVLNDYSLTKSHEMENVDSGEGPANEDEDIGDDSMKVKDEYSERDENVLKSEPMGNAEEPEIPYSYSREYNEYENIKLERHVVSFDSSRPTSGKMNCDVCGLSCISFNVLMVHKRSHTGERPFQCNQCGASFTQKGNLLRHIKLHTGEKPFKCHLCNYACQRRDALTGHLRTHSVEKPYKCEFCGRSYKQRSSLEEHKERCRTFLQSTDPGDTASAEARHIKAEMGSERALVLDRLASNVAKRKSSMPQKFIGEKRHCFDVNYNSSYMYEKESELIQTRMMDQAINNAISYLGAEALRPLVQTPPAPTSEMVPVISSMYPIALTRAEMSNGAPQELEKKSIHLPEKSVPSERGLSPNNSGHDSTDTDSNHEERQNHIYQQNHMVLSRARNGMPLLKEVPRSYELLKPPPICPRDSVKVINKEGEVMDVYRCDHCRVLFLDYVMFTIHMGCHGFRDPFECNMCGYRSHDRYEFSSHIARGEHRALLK
T2 sequence (Q96SW2 whole entry): as the sequence (Q96SW2 whole entry) above
T2 sequence (Q16531 whole entry partner): as the sequence (Q16531 whole entry partner) above

GSPT1 = target: T3, GSPT1 (Homo sapiens, UniProt P15170+Q96SW2); assay: Western-blot assay, substrate protein degradation in hPBMCs: GSPT1; type: cell-based; conditions: for GSPT1 substrate protein remaining %: compounds at 50 nM and 500 nM, 24 hours
T3 construct: effects of the compounds of the present disclosure on the expression of target proteins in cells; endogenous in cells; host or cells: human PBMCs (hPBMCs)

CK1α = target: T4, CK1α (Homo sapiens, UniProt P48729+Q96SW2); assay: Western-blot assay, substrate protein degradation in hPBMCs: CK1α; type: cell-based; conditions: for CK1α substrate protein remaining %: compounds at 50 nM and 500 nM, 24 hours
T4 construct: effects of the compounds of the present disclosure on the expression of target proteins in cells; endogenous in cells; host or cells: human PBMCs (hPBMCs)
T4 sequence (P48729 whole entry): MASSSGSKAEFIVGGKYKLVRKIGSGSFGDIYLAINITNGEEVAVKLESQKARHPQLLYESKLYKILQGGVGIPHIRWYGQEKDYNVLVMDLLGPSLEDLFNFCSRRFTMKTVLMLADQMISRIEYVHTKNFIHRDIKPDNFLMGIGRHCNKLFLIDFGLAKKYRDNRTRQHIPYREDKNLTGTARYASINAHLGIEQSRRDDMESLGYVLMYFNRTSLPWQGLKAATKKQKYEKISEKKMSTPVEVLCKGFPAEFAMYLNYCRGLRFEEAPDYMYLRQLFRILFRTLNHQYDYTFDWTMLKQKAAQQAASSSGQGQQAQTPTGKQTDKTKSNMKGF
T4 sequence (Q96SW2 whole entry): as the sequence (Q96SW2 whole entry) above
T4 sequence (Q16531 whole entry partner): as the sequence (Q16531 whole entry partner) above

IKZF1 = target: T5, IKZF1 (Homo sapiens, UniProt Q13422+Q96SW2); assay: Western-blot assay, substrate protein degradation in hPBMCs: IKZF1; type: cell-based; conditions: for IKZF1 substrate protein remaining %: compounds at 50 nM and 500 nM, 24 hours
T5 construct: effects of the compounds of the present disclosure on the expression of target proteins in cells; endogenous in cells; host or cells: human PBMCs (hPBMCs)
T5 sequence (Q13422 whole entry): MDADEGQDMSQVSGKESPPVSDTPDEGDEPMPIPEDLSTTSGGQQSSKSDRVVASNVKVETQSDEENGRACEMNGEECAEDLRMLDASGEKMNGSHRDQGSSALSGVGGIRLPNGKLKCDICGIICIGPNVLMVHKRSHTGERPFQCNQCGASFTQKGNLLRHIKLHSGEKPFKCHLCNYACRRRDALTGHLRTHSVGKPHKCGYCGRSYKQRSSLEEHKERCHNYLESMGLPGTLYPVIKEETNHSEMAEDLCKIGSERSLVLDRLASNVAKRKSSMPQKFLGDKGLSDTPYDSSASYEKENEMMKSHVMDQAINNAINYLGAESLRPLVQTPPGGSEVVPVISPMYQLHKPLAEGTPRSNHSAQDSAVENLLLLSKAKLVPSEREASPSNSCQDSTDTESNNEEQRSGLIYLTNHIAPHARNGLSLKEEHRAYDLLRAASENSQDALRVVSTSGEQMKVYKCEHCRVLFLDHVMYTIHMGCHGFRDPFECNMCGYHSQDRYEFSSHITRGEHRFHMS
T5 sequence (Q96SW2 whole entry): as the sequence (Q96SW2 whole entry) above
T5 sequence (Q16531 whole entry partner): as the sequence (Q16531 whole entry partner) above

MM.1S = assay: Cell viability assay (CellTiter-Meiluncell Luminescent), tumor cell proliferation, MM.1S; conditions: Homo sapiens, MM1.S, 96 h, read-out: inhibitory activity (IC50, nM) against tumor cells proliferation, MM.1S
IKZF2 = target: T6, IKZF2 (Homo sapiens, UniProt Q96SW2+Q9UKS7); assay: Western-blot assay, substrate protein degradation in hPBMCs: IKZF2; type: cell-based; conditions: for IKZF2 substrate protein remaining %: compounds at 50 nM and 500 nM, 24 hours
T6 construct: effects of the compounds of the present disclosure on the expression of target proteins in cells; endogenous in cells; host or cells: human PBMCs (hPBMCs)
T6 sequence (Q9UKS7 whole entry): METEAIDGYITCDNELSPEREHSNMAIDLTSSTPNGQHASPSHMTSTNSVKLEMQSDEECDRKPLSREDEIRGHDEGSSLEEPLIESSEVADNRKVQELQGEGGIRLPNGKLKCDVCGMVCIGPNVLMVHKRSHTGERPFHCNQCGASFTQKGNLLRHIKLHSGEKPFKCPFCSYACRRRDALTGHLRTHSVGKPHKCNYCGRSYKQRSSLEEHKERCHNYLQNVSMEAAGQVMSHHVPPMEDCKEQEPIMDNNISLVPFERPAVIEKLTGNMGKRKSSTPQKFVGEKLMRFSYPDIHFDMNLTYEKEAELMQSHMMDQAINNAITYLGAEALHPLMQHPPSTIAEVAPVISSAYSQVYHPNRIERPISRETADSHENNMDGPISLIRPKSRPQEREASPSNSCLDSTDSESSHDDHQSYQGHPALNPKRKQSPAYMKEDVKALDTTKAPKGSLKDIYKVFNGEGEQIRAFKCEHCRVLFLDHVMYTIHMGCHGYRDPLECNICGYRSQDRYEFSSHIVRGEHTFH
T6 sequence (Q96SW2 whole entry): as the sequence (Q96SW2 whole entry) above
T6 sequence (Q16531 whole entry partner): as the sequence (Q16531 whole entry partner) above

[1] = 24 hours of compound treatment, 50 nM and 500 nM

SMILES | WEE1 substrate protein remaining % (WEE1) | IKZF3 substrate protein remaining % (IKZF3) | GSPT1 substrate protein remaining % (GSPT1) | CK1α substrate protein remaining % (CK1α) | IKZF1 substrate protein remaining % (IKZF1) | IC50 (MM.1S) [nM] | IKZF2 substrate protein remaining % (IKZF2) | substrate protein remaining % WEE1 (WEE1; [1]) | substrate protein remaining % IKZF3 (IKZF3; [1]) | substrate protein remaining % GSPT1 (GSPT1; [1]) | substrate protein remaining % CK1α (CK1α; [1]) | substrate protein remaining % IKZF1 (IKZF1; [1]) | substrate protein remaining % IKZF2 (IKZF2; [1])
O=C1CCN(N2Cc3cc(CN4CC=C(c5ccnc6cc(F)ccc56)CC4)ccc3C2=O)C(=O)N1 [GT-05166, 1-(5-((4-(7-fluoroquinolin-4-yl)-3,6-dihydropyridin-1(2H)-yl)methyl)-1-oxoisoindolin-2-yl)dihydropyrimidine-2,4(1H,3H)-dione] | A ("A" is defined as 0% ≤ substrate protein remaining % ≤ 80%) | A ("A" is defined as 0% ≤ substrate protein remaining % ≤ 80%) | A ("A" is defined as 0% ≤ substrate protein remaining % ≤ 80%) | B ("B" is defined as 80%< substrate protein remaining %≤ 100%) | A ("A" is defined as 0% ≤ substrate protein remaining % ≤ 80%) | 100 to 300 | A ("A" is defined as 0% ≤ substrate protein remaining % ≤ 80%) |  |  |  |  |  | 
Cn1cc(C2=CCN(Cc3ccc4c(c3)CN(N3CCC(=O)NC3=O)C4=O)CC2)c2ccc(F)cc21 [GT-05167, 1-(5-((4-(6-fluoro-1-methyl-1H-indol-3-yl)-3,6-dihydropyridin-1(2H)-yl)methyl)-1-oxoisoindolin-2-yl)dihydropyrimidine-2,4(1H,3H)-dione] | A ("A" is defined as 0% ≤ substrate protein remaining % ≤ 80%) | A ("A" is defined as 0% ≤ substrate protein remaining % ≤ 80%) | A ("A" is defined as 0% ≤ substrate protein remaining % ≤ 80%) | B ("B" is defined as 80%< substrate protein remaining %≤ 100%) | A ("A" is defined as 0% ≤ substrate protein remaining % ≤ 80%) | 10 to 50 | A ("A" is defined as 0% ≤ substrate protein remaining % ≤ 80%) |  |  |  |  |  | 
O=C1CCN(N2Cc3cc(CN4CC(=C5CCOc6cc(F)ccc65)C4)ccc3C2=O)C(=O)N1 [GT-05168, 1-(5-((3-(7-fluorochroman-4-ylidene)azetidin-1-yl)methyl)-1-oxoisoindolin-2-yl)dihydropyrimidine-2,4(1H,3H)-dione] | B ("B" is defined as 80%< substrate protein remaining %≤ 100%) | A ("A" is defined as 0% ≤ substrate protein remaining % ≤ 80%) | A ("A" is defined as 0% ≤ substrate protein remaining % ≤ 80%) | B ("B" is defined as 80%< substrate protein remaining %≤ 100%) | B ("B" is defined as 80%< substrate protein remaining %≤ 100%) | 100 to 300 | B ("B" is defined as 80%< substrate protein remaining %≤ 100%) |  |  |  |  |  | 
O=C1CCN(N2Cc3cc(CN4CC(N5CCc6cc(F)ccc65)C4)ccc3C2=O)C(=O)N1 [GT-05169, 1-(5-((3-(5-fluoroindolin-1-yl)azetidin-1-yl)methyl)-1-oxoisoindolin-2-yl)dihydropyrimidine-2,4(1H,3H)-dione] | B ("B" is defined as 80%< substrate protein remaining %≤ 100%) | A ("A" is defined as 0% ≤ substrate protein remaining % ≤ 80%) | A ("A" is defined as 0% ≤ substrate protein remaining % ≤ 80%) | B ("B" is defined as 80%< substrate protein remaining %≤ 100%) | B ("B" is defined as 80%< substrate protein remaining %≤ 100%) | 100 to 300 | A ("A" is defined as 0% ≤ substrate protein remaining % ≤ 80%) |  |  |  |  |  | 
O=C1CCN(N2Cc3cc(CN4CC=C(c5nccc(Cl)c5Cl)CC4)ccc3C2=O)C(=O)N1 [GT-06392, 1-(5-((3,4-dichloro-3',6'-dihydro-[2,4'-bipyridin]-1'(2'H)-yl)methyl)-1-oxoisoindolin-2-yl)dihydropyrimidine-2,4(1H,3H)-dione] | A ("A" is defined as 0% ≤ substrate protein remaining % ≤ 80%) | A ("A" is defined as 0% ≤ substrate protein remaining % ≤ 80%) | A ("A" is defined as 0% ≤ substrate protein remaining % ≤ 80%) | A ("A" is defined as 0% ≤ substrate protein remaining % ≤ 80%) | B ("B" is defined as 80%< substrate protein remaining %≤ 100%) | 300 to 500 | A ("A" is defined as 0% ≤ substrate protein remaining % ≤ 80%) |  |  |  |  |  | 
O=C1CCN(N2Cc3cc(CN4CC=C(c5cncc(Cl)c5Cl)CC4)ccc3C2=O)C(=O)N1 [GT-06393, 1-(5-((4,5-dichloro-3',6'-dihydro-[3,4'-bipyridin]-1'(2'H)-yl)methyl)-1-oxoisoindolin-2-yl)dihydropyrimidine-2,4(1H,3H)-dione] | A ("A" is defined as 0% ≤ substrate protein remaining % ≤ 80%) | A ("A" is defined as 0% ≤ substrate protein remaining % ≤ 80%) | A ("A" is defined as 0% ≤ substrate protein remaining % ≤ 80%) | A ("A" is defined as 0% ≤ substrate protein remaining % ≤ 80%) | B ("B" is defined as 80%< substrate protein remaining %≤ 100%) | 500 to 1000 | A ("A" is defined as 0% ≤ substrate protein remaining % ≤ 80%) |  |  |  |  |  | 
CC1(C)CCC(CN2CC3CC(C2)N3Cc2ccc3c(c2)CN(N2CCC(=O)NC2=O)C3=O)=C(c2ccc(Cl)cc2)C1 [GT-06456, 1-(5-((3-((4'-chloro-5,5-dimethyl-3,4,5,6-tetrahydro-[1,1'-biphenyl]-2-yl)methyl)-3,6-diazabicyclo[3.1.1]heptan-6-yl)methyl)-1-oxoisoindolin-2-yl)dihydropyrimidine-2,4(1H,3H)-dione] | A ("A" is defined as 0% ≤ substrate protein remaining % ≤ 80%) | A ("A" is defined as 0% ≤ substrate protein remaining % ≤ 80%) | A ("A" is defined as 0% ≤ substrate protein remaining % ≤ 80%) | A ("A" is defined as 0% ≤ substrate protein remaining % ≤ 80%) | A ("A" is defined as 0% ≤ substrate protein remaining % ≤ 80%) | 100 to 300 | A ("A" is defined as 0% ≤ substrate protein remaining % ≤ 80%) |  |  |  |  |  | 
O=C1CCN(N2Cc3cc(CN4CCC(c5ccsc5)CC4)ccc3C2=O)C(=O)N1 [GT-07371, 1-(1-oxo-5-((4-(thiophen-3-yl)piperidin-1-yl)methyl)isoindolin-2-yl)dihydropyrimidine-2,4(1H,3H)-dione] |  |  |  |  |  | 500 to 1000 |  | B (80%< substrate protein remaining %≤ 100%) | A (0% ≤ substrate protein remaining % ≤ 80%) | A (0% ≤ substrate protein remaining % ≤ 80%) | B (80%< substrate protein remaining %≤ 100%) | B (80%< substrate protein remaining %≤ 100%) | B (80%< substrate protein remaining %≤ 100%)
